# Experimental data taken from patent US11491126B2, “Method for reducing lung inflammation” (priority 2017, dated 2022).
# Entries after “also recorded” stand apart in the source; their conditions may differ. Read-outs that look alike come from different tables or passages of the source.
# Key:
# [1] = tested on: Pseudomonas aeruginosa clinical strain; test: MIC of tobramycin for the clinical strain used for biofilms; type: cell-based; settings: P. aeruginosa clinical strain
# [2] = tested on: P. aeruginosa biofilms; test: Biofilms in suspended drops of cystic fibrosis mucus treated with nebulised/aerosolised agents; type: cell-based, Pseudomonas aeruginosa; settings: treated 5 min, incubated 16 hours; tobramycin 20 mg/ml, CaEDTA particles 10 mg/ml
# Description: Drops of mucus (5 μl) were suspended from an inverted IBIDI cover slip and inoculated with 10^3 colony forming units (CFU), then incubated in a humidified environment at 35° C. for 72 hours to allow biofilm development. Drops were then treated for 5 min with either nebulised tobramycin (20 mg/ml), aerosolised CaEDTA particles (10 mg/ml), or both. Controls were treated with a 50/50 solution of nebulised 0.9% saline/water. Following treatment, the drops were incubated for 16 hours, then stained with BacLight LIVE/DEAD (1 μl), and fixed in paraformaldehyde vapour for 30 min. Biofilms were visualised using confocal microscopy.
# [3] = tested on: Pseudomonas spp. (P. aeruginosa) in sputum
# Excerpt: Patients were monitored for a further four weeks, bringing the total study time to 10 weeks.
# [4] = ten CF children, nebulised, three months; cited from earlier work
# [5] = remark: listed apart in the source
# Description: Following discharge, treatment was continued twice a day for four weeks. Subjects were monitored for a further four weeks, bringing the total study time to 10 weeks.
# At each study visit, lung function was measured by spirometry. Data was recorded as the best of three attempts, and results were expressed as % predicted.
# [6] = in vivo; cited from earlier work
# [7] = remark: listed apart in the source
# Description: Subjects with CF who need treatment with dry powder tobramycin will be allocated into four cohorts and receive 112 mg dry powder twice a day for 28 days. In addition, Cohort 1 (patients >18 years) will receive ascending doses of dry powder CaEDTA (37.5 mg BID for 1 week; 75 mg BID for 2 weeks, 150 mg BID for 1 week). Cohort 2 (patients >18 years) will receive CaEDTA (37.5 mg BID for 1 week; 75 BID for 2 weeks; 75 mg QID for 1 week). Cohort 3 (patients 12-18 years) will receive CaEDTA (37.5 mg BID for 1 week; 75 mg BID for 2 weeks, 150 mg BID for 1 week. Finally, an observational cohort will receive tobramycin alone for 28 days.
# Sputum samples will be collected weekly and assessed for markers of infection and inflammation. Bacteria will be monitored by sputum colony counts. As a measure of structural damage, levels of matrix metalloproteinases (MMPs) and tissue inhibitors of metalloproteinases (TIMPs) are measured using gelatin zymography and immunoassays, respectively, as previously described (Gaggar et al., Eur Respir J. 2011 38(3): 721-727; Garratt et al., Eur Respir J. 2015 46(2):384-94). The amount of iron in the sputum is quantified by ICP-MS as previously described (Hunter et al., MBio. 2013 4(4):1-8). The amount of iron-binding proteins is assessed using immunoassays. Myeloperoxidase activity are also assayed as a measure of neutrophilic inflammation as previously described (Gaggar et al., Eur Respir J. 2011 38(3): 721-727). 3-chlorotyrosine is measured as a biomarker of the potent oxidant hypochlorous acid. Levels are measured using stable isotope dilution gas chromatography with mass spectrometry (Gaggar et al., Eur Respir J. 2011 38(3): 721-727). Protein carbonyls are measured as an indicator of reactive oxygen species (ROS) using a commercial immunoassay kit (Gaggar et al., Eur Respir J. 2011 38(3): 721-727). Oxidative stress is assessed by measuring glutathione (GSSG and GSH) using immunoassays as previously described (Kettle et al., Eur Respir J. 2014 44(1):122-9). Gene expression of inflammatory and oxidative stress markers (e.g. IL-8, IL-6, TNFa) will also be monitored by Nanostring, and proteins will be measured by ELISA. Oxidative stress can also be measured via metabolites, such as molondialdehyde (colorimetric assay) or 8-isoprostane (ELISA). Iron will be measured by elemental analysis using laser ablation-inductively coupled plasma-mass spectrometry (LA-ICP-MS).
# [8] = in vivo; cited from earlier work; remark: listed apart in the source
# [9] = tested on: bacterial infections; settings: inhaled EDTA alone; cited from earlier work
# [10] = versus placebo
# Description: A single centre, randomised, double blind, crossover study of cystic fibrosis subjects is carried out. Subjects are randomised for treatment with inhaled CaEDTA or saline (placebo) for two weeks.
# Iron levels, inflammatory markers, MMP/TIMP and FEV1 are monitored as above. Myeloperoxidase activity is also assayed as a measure of neutrophilic inflammation as previously described (Gaggar et al., Eur Respir J. 2011 38(3): 721-727). 3-chlorotyrosine will be measured as a biomarker of the potent oxidant hypochlorous acid. Levels are measured using stable isotope dilution gas chromatography with mass spectrometry (Gaggar et al., Eur Respir J. 2011 38(3): 721-727). Protein carbonyls are measured as an indicator of reactive oxygen species (ROS) using a commercial immunoassay kit (Gaggar et al., Eur Respir J. 2011 38(3): 721-727).
# [11] = remark: listed apart in the source
# Description: Subjects are then discharged and treatment continued twice a day for four weeks. Subjects are monitored for a further four weeks, bringing the total study time to 10 weeks. Sputum is collected by induction with nebulised 3% hypertonic saline at 8-10 L/min for ≥5 minutes. Samples is collected prior to treatment, and at 2, 6 and 10 weeks, processed according to the relevant protocol and stored at −80° C.
# Expectorated sputum is stored in RNAlater®, total RNA is extracted using a Qiagen RNEasy® or similar extraction kit, converted into cDNA, and inflammatory markers monitored using qPCR as described by Sivaneson et al. (Mol Microbiol 79, 1353-1366) and quantified relative to known housekeeping genes, such as actin and/or GAPDH.
# Expectorated sputum is frozen directly without processing and assayed for inflammatory markers as above. As a measure of structural damage, levels of matrix metalloproteinases (MMPs) and tissue inhibitors of metalloproteinases (TIMPs) are measured using gelatin zymography and immunoassays, respectively as previously described (Gaggar et al., Eur Respir J. 2011 38(3): 721-727; Garratt et al., Eur Respir J. 2015 46(2):384-94). The amount of iron in the sputum is quantified by ICP-MS as previously described (Hunter et al., MBio. 2013 4(4):1-8). The amount of iron-binding proteins is assessed using immunoassays. Oxidative stress is assessed by measuring glutathione (GSSG and GSH) using immunoassays as previously described (Kettle et al., Eur Respir J. 2014 44(1):122-9).
# [12] = tested on: Lung epithelial cells; settings: versus controls
# Description: Lung epithelial cells are grown in tissue culture and inflammation induced by exposure to Fe(II) or excess oxygen. The cells are treated with CaEDTA (0, 1, 5, 10, 25, 50 mM) for 30 min, 1, 3, 24 and 48 hours.
# Immunoassays are used to monitor the change in inflammatory markers, such as IL-6, IL-8, TNF-α, neutrophil elastase and others. Oxidative stress and toxicity is measured by assessing reduced glutathione (GSH) levels and apoptosis based on a TUNEL assay, both using commercial assay kits such as ThermoFisher Scientific's Glutathione Fluorescent Detection Kit and BioVision Inc's TUNEL DNA Gragmentation Assay Kit.
# [13] = EDTA group versus placebo group
compound,measurement,setting,value
NC[C@H]1O[C@H](O[C@H]2[C@H](O)[C@@H](O[C@H]3O[C@H](CO)[C@@H](O)[C@H](N)[C@H]3O)[C@H](N)C[C@@H]2N)[C@H](N)C[C@@H]1O [tobramycin],MIC,[1],> 256 µg/mL
same,"biofilm viability / killing (BacLight LIVE/DEAD, confocal microscopy)",[2],little effect on viability
"O=C([O-])CN(CCN(CC(=O)[O-])CC(=O)[O-])CC(=O)[O-].[Ca+2].[Na+].[Na+] [CaEDTA, CaNa2EDTA]",EDTA concentration in sputum,"5 minutes after 75 mg nebulised CaEDTA, CF subjects",0.41 to 1.34 mM
same,EDTA concentration inside mucus plugs,"single dose of 75 mg CaEDTA, after 30 minutes",up to 1.34 mM
same,bacterial load in expectorated mucus,"[3]; CF subjects, nebulised CaEDTA versus saline",reduces the bacterial load in CF lungs faster than antibiotic treatment alone
sodium EDTA,lung function,[4],no change in lung function
"O=C(O)CN(CCN(CC(=O)O)CC(=O)O)CC(=O)O [EDTA, ethylene diamine tetraacetic acid]",mean increase in FEV1,"[5]; after 2 weeks, 300 mg EDTA/day, placebo 5% points",16 % points
same,increase in FEV1,"[5]; four weeks after the treatment had been completed (10 weeks), placebo 2% point",7 % points
same,effect on lung function,[5]; mg EDTA/kg body weight,dose-dependent effect on lung function
same,effect on FEV1,[6],no effect on FEV1
same,reduction in colony counts of P. aeruginosa (McC agar) versus start of treatment,"[3]; after two weeks of treatment, 300 mg EDTA/day with tobramycin, placebo 4.5-fold",> 400 fold
same,inflammatory markers in sputum,[7]; [13],reduction in inflammatory markers
same,iron levels in sputum,[7]; [13],decrease in iron levels
same,balance between MMPs and TIMPs,[7]; especially MMP-9 and TIMP-1,change in the balance between MMPs and TIMPs
same,FEV1,[7]; versus control patients,increase in FEV1
same,bacterial load in sputum,[7]; versus control patients,reduction of bacterial load in sputum
same,bronchoconstriction,[8],concentration-dependent bronchoconstriction
same,treatment of bacterial infections,[9],does not treat bacterial infections
same,"biofilm viability / killing (BacLight LIVE/DEAD, confocal microscopy)",[2],some degree of killing; also recorded: kill P. aeruginosa biofilms and act synergistically with tobramycin
same,MMP/TIMP balance,[10],altered MMP/TIMP balance
same,inflammatory markers,[10],reduced levels of iron and inflammatory markers
same,iron levels,[10],reduced levels of iron
same,mean FEV1,[10],increased mean FEV1
same,mean levels of chlorotyrosine and carbonyls,[10],lower mean levels of chlorotyrosine and carbonyls
same,myeloperoxidase activity,[10],reduced myeloperoxidase activity
same,gene expression of inflammatory markers in sputum (qPCR),[11]; [13],mean reduction in the gene expression of inflammatory markers
same,inflammatory markers in sputum,[11]; [13],reduction in inflammatory markers
same,balance between MMPs and TIMPs,[11]; especially MMP-9 and TIMP-1,change in the balance between MMPs and TIMPs
same,"inflammatory markers (IL-6, IL-8, TNF-α, neutrophil elastase)","[12]; CaEDTA 0-50 mM, 30 min to 48 hours",concentration dependent reduction in inflammatory markers
same,apoptosis (TUNEL assay),[12],reduced apoptosis
same,reduced glutathione (GSH) levels,[12],reduction in GSH
